From patent publication US20190016746A1, “AMINOGLYCOSIDE DERIVATIVES AND USES THEREOF IN TREATING GENETIC DISORDERS” (Eloxx Pharmaceuticals Ltd., priority 2016, published 2019)
Where two headings read alike, the source gives them in different places.

Key:
[1] = test system: prokaryotic ribosome (E. coli S30 extract); experiment: Prokaryotic in vitro translation inhibition, E. coli S30 extract with pBESTluc plasmid; format: biochemical; conditions: read-out: Translation Inhibition IC50^Pro
Experimental: (§1) Prokaryotic in vitro translation inhibition by the different aminoglycosides was quantified in coupled transcription/translation assays by using E. coli S30 extract for circular DNA with the pBESTluc plasmid (Promega), according to the manufacturer's protocol. Translation reactions (25 μL) that contained variable concentrations of the tested aminoglycoside were incubated at 37° C. for 60 minutes, cooled on ice for 5 minutes, and diluted with a dilution reagent (tris-phosphate buffer (25 mM, pH 7.8), DTT (2 mM), 1,2-diaminocyclohexanetetraacetate (2 mM), glycerol (10%), Triton X-100 (1%) and BSA (1 mg mL-1)) into 96-well plates. Eukaryotic in vitro translation inhibition was quantified by use of TNT® T7 Quick Coupled Transcription/Translation System with a luciferase T7 control DNA plasmid (Promega), according to the manufacturer protocol. Translation reactions (25 μL) containing variable concentrations of the tested aminoglycoside were incubated at 30° C. for 60 minutes, cooled on ice for 5 minutes, diluted with the dilution reagent and transferred into 96-well plates. In both prokaryotic and eukaryotic systems the luminescence was measured immediately after the addition of the Luciferase Assay Reagent (50 μL; Promega), and the light emission was recorded with a FLx800 Fluorescence Microplate Reader (Biotek). The half-maximal inhibition concentration (IC50) values were obtained from fitting concentration-response curves to the data of at least two independent experiments by using Grafit 5 software.
(§2) In all biological tests, all AGs were in their sulfate salt forms, and the concentrations refer to the free amine form of each AG. The eukaryotic and prokaryotic half-maximal-inhibition values (IC50^Euk and IC50^Pro) were quantified in coupled transcription/translation assays by using active luciferase detection as previously described. Minimal inhibitory concentration (MIC) values were determined by using the double-microdilution method.

[2] = target: eukaryotic cytoplasmic ribosome; experiment: Eukaryotic in vitro translation inhibition, TNT T7 Quick Coupled Transcription/Translation System with luciferase plasmid; format: biochemical; conditions: for IC50: read-out: Translation Inhibition IC50^Euk; for more specific to the eukaryotic ribosome than structurally related compound: NB156 vs NB74, NB157 vs NB124
Experimental: as §1, §2

[3] = test system: E. coli R477-100; experiment: Antibacterial activity, MIC by double-microdilution method; format: cell-based; conditions: for MIC: Escherichia coli, R477100, read-out: Antibacterial activity MIC E. coli R477/100
Experimental: (§3) Comparative antibacterial activities were determined in two representative strains of Gram-negative (E. coli R477-100) and Gram-positive (B. subtilis ATCC-6633) bacteria, by measuring the MIC values using the double-microdilution method according to the National Committee for Clinical Laboratory Standards (NCCLS) (NCCLS. National Committee for Clinical Laboratory Standards, Performance standards for antimicrobial susceptibility testing. Fifth information supplement: Approved Standard M100-S5; Villanova, Pa.: NCCLS, 1994.).
as §2

[4] = test system: human fibroblast cells; conditions: cited from earlier work
[5] = test system: R3X nonsense mutation construct representing USH1 (PCDH15); experiment: Dual luciferase in vitro readthrough assay, R3X construct; format: biochemical; conditions: FIG. 3
From the text: (§4) DNA fragments derived from PCDH15, CFTR, and IDUA cDNAs, including the tested nonsense mutation or the corresponding wild type (wt) codon, and four to six upstream and downstream flanking codons were created by annealing the following pairs of complementary oligonucleotides:
(§5) Fragments were inserted in frame into the polylinker of the p2Luc plasmid between either BamHI and SacI (p.R3X and p.R245X) or SalI and SacI (all the rest) restriction sites. For the in vitro readthrough assays, the obtained plasmids, with addition of the tested aminoglycosides were transcribed and translated using the TNT Reticulocyte Lysate Quick Coupled Transcription/Translation System. Luciferase activity was determined after 90 minutes of incubation at 30° C., using the Dual Luciferase Reporter Assay System (Promega™).
FIG. 3 presents comparative plots showing in vitro stop codon suppression levels induced by Compound 1 (-▪-), NB153 (-▴-), and NB155 (-Δ-) in R3X nonsense mutation construct representing USH1 genetic disease.

[6] = test system: premature termination codon (PTC); experiment: Comparative in-vitro PTC suppression activity assays (Example 3); format: biochemical; conditions: preliminary
Experimental: as §5

[7] = test system: nonsense constructs R3X (USH1), R245X (USH1), Q70X (HS), G542X (CF); experiment: Dual luciferase in vitro readthrough assay, four nonsense constructs; format: biochemical; conditions: all mutations tested, FIGS. 4A-D; for readthrough activity relative to structurally related compound lacking 7′-hydroxyl: NB156 vs NB74, NB157 vs NB124
From the text: as §4, §5
Activity was tested using a collection of dual-luciferase reporter plasmids, containing different sequence contests around premature stop codons derived from the PCDH15, CFTR, and IDUA genes that underline USH1, CF, and MPS I-H, respectively. The exemplified nonsense reporters were R3X and R245X for USH1, G542X for CF, and Q70X for MPS I-H.
The results are averages of at least three independent experiments.

[8] = test system: stop codon mutations of Table 3; experiment: Dual-luciferase readthrough assay, broad arsenal of stop codon mutations; format: biochemical; conditions: all tested mutations
Experimental: In these assays, the readthrough of a broad arsenal of stop codon mutations in the presence of NB156 and NB157 was tested. Briefly, NB156 and NB157 were tested at escalating doses for their read-through properties towards the nonsense mutation using the wild-type (WT) sequence of each specific complementary DNA (cDNA) as a control, and plasmids bearing the stop codon mutations in a dual-luciferase assay. DNA fragments derived from different cDNAs were prepared using either the WT or nonsense mutation, in which the sequences from the mutant or wild-type codon were surrounded by four to six upstream and downstream flanking codons. The cDNA sequence was inserted into the polylinker of the p2luc plasmid for each sequence.

[9] = test system: B. subtilis ATCC-6633; experiment: Antibacterial activity, MIC by double-microdilution method; format: cell-based; conditions: Table 2
Experimental: as §3, §2

[10] = Table 2, sulfate salts, concentrations refer to free amine form

Compound	IC50 [1, 10]	IC50 [2, 10]	IC50 ([1]; Table 4)	IC50 ([2]; Table 4)	also measured
CC(O)C1O[C@H](O[C@@H]2C(N)C[C@@H](N)C(O)C2O[C@@H]2O[C@H]([C@H](C)N)C(O)C2O)C(N)C(O)[C@@H]1O (single isomer, unassigned) [NB124, reference compound]	1.1 ± 0.2 µM	1.5 ± 0.1 µM			MIC [3]: 1270 µM
CN[C@@H]1[C@@H](O)[C@@H](O[C@@H]2[C@@H](O)[C@H](O[C@H]3O[C@H]([C@@H](C)O)[C@@H](O)[C@H](O)[C@H]3N)[C@@H](N)C[C@H]2N)OC[C@]1(C)O [Compound G418, geneticin]					LD50 [4]: 0.04 mg/mL
NC[C@H]1O[C@@H](OC2C(O)[C@H](N)CC(N)[C@H]2O[C@H]2OC(CO)[C@@H](O)C(O)C2N)C(O)C1O (stereo partly shown) [NB30, reference compound]			0.45 ± 0.03 µM	31 ± 4 µM	
C[C@H](N)[C@H]1O[C@@H](OC2C(O)[C@H](N)CC(N)[C@H]2O[C@H]2OC(CO)[C@@H](O)C(O)C2N)C(O)C1O (stereo partly shown) [NB118, reference compound]			1.9 ± 0.2 µM	15.5 ± 1.3 µM	
N[C@H]1[C@@H](O[C@H]2[C@H](O)[C@@H](O)[C@H](N)C[C@@H]2N)O[C@H]([C@H](O)CO)[C@@H](O)[C@@H]1O [NB153, (2R,3S,4R,5R,6S)-5-amino-6-(((1R,2R,3S,4R,6S)-4,6-diamino-2,3-dihydroxycyclohexyl)oxy)-2-((R)-1,2-dihydroxyethyl)tetrahydro-2H-pyran-3,4-diol]	11 ± 1.2 µM	120 ± 14.5 µM			in vitro readthrough activity relative to Compound 1 [5]: dramatically increases
N[C@H]1[C@@H](O[C@H]2[C@H](O)[C@@H](O)[C@H](N)C[C@@H]2N)OC(CO)=C[C@@H]1O [NB154, (1S,2R,3R,4S,6R)-4,6-diamino-3-(((2S,3R,4S)-3-amino-4-hydroxy-6-(hydroxymethyl)-3,4-dihydro-2H-pyran-2-yl)oxy)cyclohexane-1,2-diol]			82.3 ± 11.9 µM	376 ± 38.6 µM	readthrough activity relative to NB82 [6]: more or less similar activity; readthrough activity relative to paromamine [6]: ~3.5 fold
N[C@H]1[C@@H](O[C@H]2[C@H](O)[C@@H](O)[C@H](N)C[C@@H]2N)O[C@H]([C@@H](O)CO)[C@@H](O)[C@@H]1O [NB155, (2R,3S,4R,5R,6S)-5-amino-6-(((1R,2R,3S,4R,6S)-4,6-diamino-2,3-dihydroxycyclohexyl)oxy)-2-((S)-1,2-dihydroxyethyl)tetrahydro-2H-pyran-3,4-diol]	91.9 ± 8.4 µM	516 ± 15 µM			in vitro readthrough activity relative to Compound 1 [5]: somewhat higher activity
NC[C@H]1O[C@@H](O[C@@H]2[C@@H](O)[C@H](N)C[C@H](N)[C@H]2O[C@H]2O[C@H]([C@H](O)CO)[C@@H](O)[C@H](O)[C@H]2N)[C@@H](O)[C@H]1O [NB156, (2R,3S,4R,5R,6S)-5-amino-6-(((1R,2R,3S,4R,6S)-4,6-diamino-2-(((2S,3S,4R,5R)-5-(aminomethyl)-3,4-dihydroxytetrahydrofuran-2-yl)oxy)-3-hydroxycyclohexyl)oxy)-2-((R)-1,2-dihydroxyethyl)tetrahydro-2H-pyran-3,4-diol]	0.7 ± 0.1 µM	7.5 ± 0.5 µM			readthrough activity relative to gentamicin [7]: significantly better; readthrough activity relative to structurally related compound lacking 7′-hydroxyl [7]: substantially better; stop-codon mutation readthrough activity compared to NB74 [8]: more active than NB74; more specific to the eukaryotic ribosome than structurally related compound [2]: 1.85 fold
C[C@H](N)[C@H]1O[C@@H](O[C@@H]2[C@@H](O)[C@H](N)C[C@H](N)[C@H]2O[C@H]2O[C@H]([C@H](O)CO)[C@@H](O)[C@H](O)[C@H]2N)[C@@H](O)[C@H]1O [NB157, (2R,3S,4R,5R,6S)-5-amino-6-(((1R,2R,3S,4R,6S)-4,6-diamino-2-(((2S,3S,4R,5R)-5-((S)-1-aminoethyl)-3,4-dihydroxytetrahydrofuran-2-yl)oxy)-3-hydroxycyclohexyl)oxy)-2-((R)-1,2-dihydroxyethyl)tetrahydro-2H-pyran-3,4-diol]		1.2 µM			readthrough activity relative to gentamicin [7]: significantly better; readthrough activity relative to structurally related compound lacking 7′-hydroxyl [7]: better; more specific to the eukaryotic ribosome than structurally related compound [2]: 1.25 fold
NC[C@H]1O[C@@H](O[C@@H]2C(O)[C@H](N)CC(N)[C@H]2O[C@H]2OC(CO)=CC(O)[C@@H]2N)C(O)[C@H]1O (stereo partly shown) [NB158]			36.4 ± 3.5 µM	70.7 ± 2.4 µM	MIC [3]: > 192 µg/mL
C[C@H](N)[C@H]1O[C@@H](O[C@@H]2C(O)[C@H](N)CC(N)[C@H]2O[C@H]2OC(CO)=CC(O)[C@@H]2N)C(O)[C@H]1O (stereo partly shown) [NB159]			134 ± 2.8 µM	47.9 ± 3.3 µM	MIC [3]: > 192 µg/mL
N[C@H]1[C@@H](O[C@H]2[C@H](O)[C@@H](O)[C@H](N)C[C@@H]2N)O[C@H](CO)[C@@H](O)[C@@H]1O [Paro., paromamine, reference compound]			14 ± 1.2 µM	760 ± 79 µM	
gentamicin [reference compound]	0.03 µM	62 µM			Antibacterial Activity MIC E. Coli R 477/100 ([3]; Table 2): 6 µM; Antibacterial Activity MIC B. Subtilis ATCC6633 [9]: <0.75 µM
